In general, EC50 refers to the concentration at which the effect is half-maximal. Low readings indicate an effect from little substance, high ones a need for much substance.

One experiment has as its target STX4 (Homo sapiens, UniProt Q12846). As to the kind of experiment: TPP-CCR in living HL-60 cells.
The target of the next experiment is MAPK14 (Homo sapiens, UniProt Q16539). As to the kind of experiment: TPP-TR in living HL-60 cells. The experiment is classed as cell-based. The following applies: 20 μM, single set (no replicates). The method, then: (§1) HL-60 cells (ATCC No. CCL-240) were expanded to about […] in 80 mL cell culture medium (RPMI-1640 supplemented with 10% (v/v) FBS, 1% (v/v) penicillin-streptomycin and 1% (v/v) L-glutamine solution) and divided into four aliquots (20 mL each, 25 million cells per flask). […] The same volume of DMSO was added to the remaining aliquot serving as the vehicle (DMSO) control. After incubation (1 h, 37 °C, 5% CO2, in cell culture CO2 incubator), the cell suspensions were transferred into 50 mL conical tubes, cell number and viability were determined, and after centrifugation (300 relative centrifugal force (rcf), 3 min, room temperature (r.t.)), the supernatants were completely removed and discarded. The cells were washed using 20 mL Dulbecco’s phosphate-buffered saline (PBS), respectively, by resuspension and centrifugation (300 rcf, 3 min, r.t.). After the complete removal of the supernatants, the cells were transferred into pre-weighed 2 mL Eppendorf tubes using 0.5 mL PBS (r.t.), respectively, for resuspending. After centrifugation (300 rcf, 3 min, r.t.) and removing as much as possible of the supernatants, the cell wet weights were determined.
Chain of MAPK14 (Q16539 whole entry): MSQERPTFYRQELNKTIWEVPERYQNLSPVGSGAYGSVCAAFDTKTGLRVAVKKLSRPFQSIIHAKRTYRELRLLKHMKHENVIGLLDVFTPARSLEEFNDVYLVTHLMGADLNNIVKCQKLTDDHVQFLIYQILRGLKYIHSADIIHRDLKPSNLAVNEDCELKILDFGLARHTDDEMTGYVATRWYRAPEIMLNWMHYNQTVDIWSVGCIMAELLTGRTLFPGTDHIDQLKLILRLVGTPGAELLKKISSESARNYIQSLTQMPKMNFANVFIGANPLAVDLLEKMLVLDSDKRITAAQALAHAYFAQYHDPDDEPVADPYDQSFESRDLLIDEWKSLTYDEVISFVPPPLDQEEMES
(§2) The suspensions were shortly centrifuged (1 s or less) using a benchtop centrifuge that was equipped with an inset for PCR tubes to release trapped air and to achieve an even liquid level without pelleting the cells. The 100 µL cell suspensions were then temperature treated by a 7 min pre-incubation at r.t., a 3 min incubation at the following different temperatures in the PCR cycler (DNA Engine Tetrad 2, lid temperature 70 °C, gradient block 1: 36–55 °C, gradient block 2: 48–67 °C), and a 3 min post-incubation at r.t. in a metal heating block for uniform heat dissipation.
The cells were lysed by four freeze/thaw cycles consisting of thawing the samples (in a heat block set to 25 °C and shaking at 1250 rpm) accompanied by mixing them several times by inversion and then shock freezing them again in liquid nitrogen. The resulting lysates were kept cold (on ice or 4 °C) from then on. After centrifugation (20,000 rcf, 30 min, 4 °C) to pellet the cell debris together with precipitated and aggregated proteins, the supernatants were recovered and, after determining the total protein concentration (Pierce 660 nm Protein Assay, BSA as standard), the resulting cell extracts containing the fraction of soluble, non-denatured proteins were shock frozen in liquid nitrogen and stored at −80 °C.
For each sample set comprising ten temperature range samples, the same volume of the cell extracts containing the fraction of soluble, non-denatured proteins was used for further analysis. Volume calculation for 30 µg total protein was performed as described for SDS-PAGE and immunoblotting. The calculated volume was respectively transferred into 0.5 mL LoBind Eppendorf tubes and evaporated to dryness using vacuum centrifugation (SpeedVac concentrator, Eppendorf, Hamburg, Germany). The dried proteins were each reconstituted in 10 µL of SDS sample buffer (containing DTT) and incubated for 30 min at 50 °C with shaking (700 rpm). 1.111 µL 1 M iodoacetamide (IAA) was added to each sample (final 100 mM IAA), then the samples were mixed and incubated for 30 min at r.t. in the dark. Sample quality was controlled by SDS-PAGE/silver staining using 0.926 µL of each sample (2.5 µg on average for the two lowest temperature samples; 26-well 4–12% Bis-Tris polyacrylamide gels, Novex NuPAGE, Thermo Scientific; 15 min at 50 V, about 1.5 h at 200 V using the recommended MOPS running buffer).

The subject of the next experiment is MAPKAPK2p. The experiment can be described thus: CETSA in living HL-60 cells, immunoblot. It is filed as cell-based, Homo sapiens. The method, then:
First, we conducted CETSA experiments according to Jafari et al.. […] Subsequent SDS-PAGE and immunoblotting were performed according to optimized conditions allowing for parallel detection of MAPK14, MAPKAPK2, MAPKAPK3, and GSK-3α (Supplementary Figure S1).
as §1, §2
The cells were lysed by four freeze/thaw cycles consisting of thawing the samples (in a heat block set to 25 °C and shaking at 1250 rpm) accompanied by mixing them several times by inversion and then shock freezing them again in liquid nitrogen. […]
For each sample set comprising either ten temperature range samples or ten compound concentration range samples, the same volume of the cell extracts containing the fraction of soluble, non-denatured proteins was used for further analysis. This volume was determined using the two lowest temperature samples (36.5 and 41.2 °C) per temperature range sample set so that they contained an average of 5 µg total protein (e.g., 2.78 µL for all temperature range samples of a sample set whose two lowest temperature samples contain an average of 1.8 mg/mL protein). […]
On the technique in general: A western blot detects proteins with antibodies after separation by electrophoresis.

The next experiment addresses C14orf166 (Homo sapiens, UniProt Q9Y224). The settings on record: living HL-60 cells, […] °C, TMT-MS. The source says:
Therefore, we performed TPP with compound concentration range (TPP-CCR) experiments according to published procedures. In brief, after preparing tryptic peptides from the non-denatured protein fractions (used for immunoblotting in the previous sections) applying the SP3 method, the peptides were labeled using TMT10plex, coding for inhibitor concentration, and the samples belonging to a TMT set were combined, offline high-pH fractionated, and analyzed by MS.
HL-60 cells were expanded as described above for CETSA and TPP-TR to 1.25 million cells per milliliter. […] A number of 2.5 million cells in 2 mL of medium were added to each tube and incubated (1 h, 37 °C). […]
For each sample set comprising ten compound concentration range samples, a same volume of the cell extracts containing the fraction of soluble, non-denatured proteins, corresponding to an average of 5 µg total protein, was used for further analysis. The calculated volume was respectively transferred into PCR tubes of a tube strip and supplemented with SDS sample buffer without DTT and bromophenol blue (final concentrations: 7.5% glycerol, 3% SDS, 37.5 mM Tris/HCl pH 7.0) and ddH2O to a final volume of 10 µL, respectively. […]

Setting [1] is: living HL-60 cells, 20 µM inhibitor.

Chain of STX4 (Q12846 whole entry): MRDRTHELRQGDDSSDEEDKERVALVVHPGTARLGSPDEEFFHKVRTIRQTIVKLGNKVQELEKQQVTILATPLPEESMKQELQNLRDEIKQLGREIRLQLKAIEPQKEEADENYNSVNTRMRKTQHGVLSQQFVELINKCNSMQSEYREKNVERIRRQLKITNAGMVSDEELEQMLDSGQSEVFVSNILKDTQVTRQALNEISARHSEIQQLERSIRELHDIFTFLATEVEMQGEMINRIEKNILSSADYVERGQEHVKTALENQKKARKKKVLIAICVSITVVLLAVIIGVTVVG
Chain of C14orf166 (Q9Y224 whole entry): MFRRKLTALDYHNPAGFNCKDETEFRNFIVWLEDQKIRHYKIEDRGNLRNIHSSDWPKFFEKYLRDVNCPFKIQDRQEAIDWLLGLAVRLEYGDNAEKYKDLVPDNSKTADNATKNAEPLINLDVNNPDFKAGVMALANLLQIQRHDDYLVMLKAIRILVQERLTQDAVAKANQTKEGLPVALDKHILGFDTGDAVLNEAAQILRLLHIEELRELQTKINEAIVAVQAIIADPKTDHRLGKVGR

On to `Cn1c(NC[C@@H](N)Cc2ccccc2)nc(-c2ccncc2)c(-c2ccc3ccccc3c2)c1=O` [AMG-548], for which the EC50 at STX4 was 132 nM. In addition, the “Hill slope (STX4)” value at STX4 (living HL-60 cells, […] °C, TMT-MS) turned out to be 0.27. The “thermal stabilization in melting curves (MAPK14)” value at MAPK14 was “thermal stabilizations”.

`Cc1cnc(Nc2ccc(F)cc2Cl)nc1-c1c[nH]c(C(=O)N[C@H](CO)c2cccc(Cl)c2)c1` [ERK 11e]: in the experiment on MAPKAPK2p (MAPKAPK2p, living cells), the Tm came out at 47.18 °C and the “ΔTm to DMSO” value is -1.07 °C. Moreover, in the experiment on MAPKAPK2p (setting [1]), the “Tm (MAPKAPK2p)” value was determined as 47.18 °C and the “ΔTm to DMSO (MAPKAPK2p)” value is −1.07 °C.

Take `C[S+]([O-])c1ccc(-c2nc(-c3ccncc3)c(-c3ccc(F)cc3)[nH]2)cc1` (centres unmarked) [SB203580]: at C14orf166, the “Hill slope (C14orf166)” value came to 0.33.

These data come from paper PMC9147192, “Small Molecule Arranged Thermal Proximity Coaggregation (smarTPCA)—A Novel Approach to Characterize Protein–Protein Interactions in Living Cells by Similar Isothermal Dose–Responses” (International Journal of Molecular Sciences, 2022).
